{"source": "paper PMC7824363", "about": "“The Cytotoxicity of RNase-Derived Peptides” (Biomolecules, 2020)", "key": {"BT-20 cells [1]": {"tested_on": "BT-20 cells", "test": "MTT assay, BT-20 cell viability", "type": "cell-based, human", "conditions": "48 h", "method": "(§1) The human alveolar adenocarcinoma cell line (A549), two breast cancer cell lines (MCF-7 and BT-20), and cervical cancer cell line (HeLa) were obtained from American Type Culture […] (Rockville, MD, USA). Cells were grown at 37 °C in humidified 5% CO2 atmosphere using RPMI 1640 medium for A549 cells and Dulbecco’s modified Eagle’s medium for MCF-7, BT-20, and HeLa cells supplemented with 10% fetal bovine serum (HyClone), 2 mM glutamine, and antibiotics (penicillin and streptomycin, 100 U/mL each).\n(§2) The viability of untreated control cells and cells treated with binase and binase-derived peptides at different concentrations (5, 50, and 125 μM) was determined according to the mitochondrial nicotinamide adenine dinucleotide phosphate NAD(P)H-dependent cellular oxidoreductases activity tested by the standard procedure based on the reduction of the tetrazolium dye MTT) to its insoluble product formazan, which has a purple color. Cells at the initial concentration of […] per well were grown in a 96-well plate (CELLTREAT Scientific Products, Shirley, MA, USA); then, the culture fluid was discarded and fresh medium with peptides was added. After 48 h, formazan absorption was measured at 570 nm (xMark, Bio-Rad, Hercules, CA, USA). The amount of formazan produced is proportional to the number of viable cells. The viability of untreated cells was taken as 100%."}, "BT-20 cells [2]": {"tested_on": "BT-20 cells", "test": "Immunofluorescence confocal microscopy, entry into BT-20 cells", "type": "cell-based, human", "conditions": "50 µM, 30 min incubation, His-tagged peptides (anti-His Alexa Fluor 647) or tagless binase (anti-binase, FITC), confocal laser scanning microscopy", "method": "(§3) A549 cells (25,000 cells/well) and BT-20 cells (150,000 cells/well) were seeded on 4-well chamber slides and incubated for 24 h in 800 µL of 10% fetal bovine serum containing RPMI or DMEM, respectively. The medium was replaced with the fresh one, and the His-tagged B21–50 and B74–94 peptides or tagless binase were applied to each well at the final concentration of 50 µM. After 30 min of incubation, the medium was removed, and the cells were washed three times with ice-cold phosphate-buffered saline (PBS). Then, cells were fixed in a 4% paraformaldehyde solution for 15 min and permeabilized in 0.1% Triton-X100 solution in PBS for 10 min. Binase-treated cells were incubated overnight with anti-binase antibodies (1:500) at 4 °C [39]. Thereafter, the cells were washed three times in PBS containing 0.1% Tween for 10 min each and then were incubated with fluorescein isothiocyanate (FITC)-conjugated mouse anti-rabbit immunoglobulin G (IgG) (H+L) cross-adsorbed secondary antibody (Thermo Fisher Scientific, Inc., Waltham, MA, USA Cat.# 31584) at the concentration of 2 µg/mL in PBS containing 1% bovine serum albumin at room temperature for 45 min in the dark. Non-specific binding of the secondary antibodies was evaluated at the same experiment but without treatment with primary antibodies. […]"}, "HeLa cells": {"tested_on": "HeLa cells", "test": "MTT assay, HeLa cell viability", "type": "cell-based, human", "conditions": "48 h, versus untreated cells = 100%, triplicate", "method": "as §1, §2"}, "A549 cells": {"tested_on": "A549 cells", "test": "Immunofluorescence confocal microscopy, entry into A549 cells", "type": "cell-based, human", "conditions": "50 µM, 30 min incubation, His-tagged peptides (anti-His Alexa Fluor 647) or tagless binase (anti-binase, FITC), confocal laser scanning microscopy", "method": "as §3"}, "MCF-7 cells": {"tested_on": "MCF-7 cells", "test": "MTT assay, MCF-7 cell viability", "type": "cell-based, human", "conditions": "125 µM, 48 h", "method": "as §1, §2"}, "BT-20 cells [3]": {"tested_on": "BT-20 cells", "test": "MTT assay with cetuximab pre-treatment (EGFR inhibition)", "type": "cell-based, human", "conditions": "10 μg/mL cetuximab for 48 h, then 50 μM peptide for 48 h", "method": "To examine the peptide effect on EGFR signaling, the EGFR-specific monoclonal antibody cetuximab (Merck, KGaA, Darmstadt, Germany) was added at the concentration of 10 μg/mL to cells grown for 24 h in 96-well plates. After 48 h of exposure to inhibitor, half the wells were treated with the B74–94 peptide at 50 μM concentration, and the cells were allowed to grow for another 48 h. Afterwards, cell proliferation was assessed by the MTT assay."}, "[4]": {"molecular_target": "epidermal growth factor receptor (human (endogenous in BT-20)) (UniProt P00533)"}, "[5]": {"conditions": "concentration not specified (5-125 µM tested)"}}}
{"substance": "B1–20: chemically synthesized peptide corresponding to binase region 1–20 (AVINTFDGVADYLIRYKRLP; UniProt P00649 54-73, looked up, fragment)", "values": [{"measurement": "decrease of cell viability", "setting": "BT-20 cells [1]; [5]", "value": "15–25%"}]}
{"substance": "B21–50: chemically synthesized peptide corresponding to binase region 21–50 (DNYITKSQASALGWVASKGNLAEVAPGKSI; UniProt P00649 74-103, looked up, fragment)", "values": [{"measurement": "detection inside BT-20 cells", "setting": "BT-20 cells [2]", "value": "detected inside BT-20 cells"}, {"measurement": "decrease of cell viability", "setting": "HeLa cells; 50 µM", "value": 45, "unit": "%"}, {"measurement": "decrease of cell viability", "setting": "HeLa cells; 125 µM (highest concentration)", "value": 93, "unit": "%"}, {"measurement": "decrease of cell viability", "setting": "BT-20 cells [1]; 5 µM, versus non-treated cells, triplicate", "value": 28, "unit": "%"}, {"measurement": "decrease of cell viability", "setting": "BT-20 cells [1]; 50 µM, versus non-treated cells, triplicate", "value": 23, "unit": "%"}, {"measurement": "decrease of cell viability", "setting": "BT-20 cells [1]; 125 µM, versus non-treated cells, triplicate", "value": 68, "unit": "%"}, {"measurement": "detection inside A549 cells", "setting": "A549 cells", "value": "not been visualized"}]}
{"substance": "B74–94: chemically synthesized peptide corresponding to binase region 74–94 (DINYVSGFRNADRLVYSSDWL; UniProt P00649 127-147, looked up, fragment)", "values": [{"measurement": "detection inside BT-20 cells", "setting": "BT-20 cells [2]", "value": "detected inside BT-20 cells"}, {"measurement": "inhibition of cell proliferation (fold)", "setting": "MCF-7 cells", "value": "two-fold"}, {"measurement": "detection inside A549 cells", "setting": "A549 cells", "value": "not been visualized"}, {"measurement": "decrease of cytotoxicity after preliminary cell treatment with cetuximab", "setting": "BT-20 cells [3]", "value": 28, "unit": "%"}]}
{"substance": "B95–109: chemically synthesized peptide corresponding to binase region 95–109 (IYKTTDHYATFTRIR; UniProt P00649 148-162, looked up, fragment)", "values": [{"measurement": "decrease of cell viability", "setting": "BT-20 cells [1]; [5]", "value": "15–25%"}]}
{"substance": "binase-derived peptide B74–94", "values": [{"measurement": "cytotoxicity of B74–94 (50 μM, 48 h) toward BT-20 cells by MTT assay after 48 h of pre-treatment with 10 μg/mL cetuximab (EGFR-specific antibody)", "setting": "[4]", "value": 28, "unit": "%"}]}
